Assay results taken from patent publication US20060088552A1, “Method for inhibiting cell death, cell death inhibitor, and remedy for disease caused by cell death containing the cell death inhibitor” (priority 2002, published 2006).

Key:
[1] = tested on: C6 glial cells; test: Whole-cell patch-clamp recording of VacA-induced currents; type: cell-based, rat; conditions: extracellular application, 100 μM, pH 7.4
Procedure: Using wide-tipped electrodes (to 2 MΩ), observation according to whole-cell recording (patch-clamp methods) was performed at room temperature (23-25° C.) as reported previously (Kubo M., Okada Y., “Volume-regulatory Cl^− channel currents in cultured human epithelial cells”, J. Physiol. 456, 351-371, 1992). Series resistance (<5 MΩ) was compensated (to 60% to 70%) to minimize voltage errors. Time course of current change was monitored by applying (every 15 s) alternating step pulses ([…]) from a holding potential of 0 to ±40 mV. To monitor voltage dependence of a whole-cell volume-sensitive current, step pulses (2-s duration) were applied from a prepotential of −60 mV (2-s duration) to test potentials of −60 to 100 mV in 20 mV increments after attaining steady-state activation of swelling-induced current. […] Instantaneous currents were recorded 2.5 ms after application of step pulses. […] Currents were recorded using an EPC-9 amplifier (HEKA, Lambrechet, Germany). […]
Cell swelling was induced by hypotonic (270 mosmol/kg H2O) solution in which mannitol was reduced to 40 mM. […] Permeability properties of VacA-induced channels were also assessed by using the following solutions: […]
Relative anion permeability was also assessed by replacing 115 mM extracellular Cl^− with aspartate. […]

[2] = tested on: C6 glial cells; type: cell-based, rat
Procedure: Cell volume was assessed according to a Coulter principle using a flow cytometer (EPICS Elite ESP, Coulter Co., Miami, Fla.). Cell viability was also assessed under a flow cytometry by a propidium iodide exclusion test. The cell suspension of 10 ml was incubated at 37° C. fro 1 min after adding 2 μl of PBS containing 10 mg/ml propidium iodide. Mean cell volume was measured at a given time by introducing 350 μl of the cell suspension containing 2×10^4 cells into the flow cytometer. A baseline cell volume was obtained as mean of values measured before and after a 20-min incubation in control solution (pH 7.4). Thereafter, effects of acidosis (pH 6.2), lactacidosis (pH 6.2), or lactate (pH 7.4) were assessed with addition of (i) HCl, (ii) lactate, or (iii) lactate and Tris. After the cells were preincubated with control (pH 7.4), acidic (pH 6.2), or lactacidosis (pH 6.2 with lactate) solution (all isotonic), effects of a hypotonic challenge were also assessed by diluting the isotonic medium with a 30% volume of deionized distilled water.
Composition of control solution employed for cell volume measurements was as follows: 125 mM NaCl, 2.5 mM KCl, 2 mM CaCl2, 1.0 mM MgCl2, 10 mM glucose, 1.25 mM NaH2PO4, and 25 mM NaHCO3 (pH 7.4, in 95% air/5% CO2). […] Molar osmolality measured by a freezing-point depression osmometer (Vogel, Giessen, Germany) was, 300, 306, and 312 mosmol/kg-H2O. […]

Row | Compound | effect on VacA-mediated current [1] | volume regulation after lactacidosis-induced transient swelling in VacA-treated cells ([2]; 100 μM NPPB, VacA-treated cells) | lactacidosis-induced persistent cell swelling ([2]; pretreatment with gramicidin 0.5 μM)
1 | O=C(O)c1cc([N+](=O)[O-])ccc1NCCCc1ccccc1 [NPPB] | strongly inhibited | abolished | 
2 | gramicidin |  |  | not prevented
